Test results published in PubChem BioAssay AID2305 (GlaxoSmithKline (GSK), 2010).

tested on: P. falciparum 3D7 growth, pLDH absorbance; assay: P. falciparum 3D7 growth inhibition, dose response, strain 3D7 (AID 2305)

SMILES	IC50 [nM]
CCOc1ccc(N2CCN(CCCCNC(=O)c3ccc(NC(=O)c4ccc(Cl)cc4)cc3)CC2)c(OCC)c1	570
O=c1cc(NCCC(CNCc2ccoc2)NCc2cc(Br)cc(Br)c2)[nH]c2ccccc12 (stereo not given)	910
O=C(NCCNc1noc(-c2sccc2Br)n1)c1ccc(Cl)cc1	1170
c1csc(-c2nc(N3CCCC3)ncc2-c2ccsc2)n1	210
CCc1ccc(S(=O)(=O)Nc2ccc(CCN(C)C3CCN(C)CC3)cc2)cc1	1060
Cc1cccc2[nH]c(-c3ccc(-c4cccc(CNCc5ccc(CN)cc5)c4)s3)nc12	610
OC(CNC1CCCCCC1)c1ccc(Cl)c(Cl)c1 (stereo not given)	690
C#CC(C)(CO)N1CCCC1 (stereo not given)	380
COc1ccc(/C=C/C(=O)NCCCCCN2CCC(c3c[nH]c4ccccc34)CC2)cc1O	960
COc1ccc(CNCc2ccc(F)cc2)cc1-c1cccc(S(=O)(=O)NCCN2CCCC2)c1	800
COc1ccccc1C1CN(Cc2coc3ccccc3c2=O)Cc2ccccc2O1 (stereo not given)	1320
CN1CCN(c2cc3c(Nc4ccc5c(cnn5Cc5ccccc5)c4)ncnc3cn2)CC1	1130
Cc1cc(=O)c(-c2ccc(S(=O)(=O)c3ccc(Cl)cc3)cc2)c(C)[nH]1	880
N[C@@H](COc1cccc2c(-c3ccncc3)c(-c3cccc(NC(=O)Nc4ccccc4)c3)nn12)c1ccccc1	410
O=[N+]([O-])c1ccc(Nc2nc(NN=Cc3ccc(-c4ccc([N+](=O)[O-])cc4)o3)nc(Nc3ccccc3)n2)cc1	640
CN(C)CCOc1cc(NC(=O)Nc2cccc3c(-c4ccncc4)cccc23)ccc1I	730
Nc1cc2c(C3CCN(CC4CCN(C(=O)/C=C/c5ccc(Cl)c(Cl)c5)CC4)CC3)c[nH]c2cn1	970
O=C(Nc1ccc(-c2cccc(-c3nc4ccc(C(F)(F)F)cc4[nH]3)c2)cc1)c1ccoc1	830
Cc1nc2nc(N)nc(N)c2c(C)c1Cc1ccccc1Br	60
COc1cc(C=NNc2nc(Nc3ccccc3)nc(Nc3ccccc3)n2)ccc1OCc1ccccc1[N+](=O)[O-]	810
Cc1cccc2[nH]c(-c3ccc(-c4ccc(CNCCN5CCNCC5)cc4)s3)nc12	1150
CN(C)c1ccc(-c2ccc(C(=O)NC3CCN(Cc4ccccc4)CC3)s2)cc1	1050
CC(C)c1cccc(OCC2CCN(c3ccc(C(=O)Nc4ccccc4)cn3)CC2)c1	700
COc1ccc2nccc([C@@H](O)CN3CCC(NCCOc4c(C)cccc4F)CC3)c2c1	350
CC(C)Cn1c(Sc2ccc(C#N)c([N+](=O)[O-])c2)nnc1-c1cccs1	1080

SMILES	IC50 [nM]
CN(C)CCOc1cc(O)c2c(c1)OC(C)(C)C=C2c1cccs1	290
CCn1cc(C=C2Oc3c(ccc(O)c3CN3CCCCC3)C2=O)c2cc(OC)ccc21	520
O=C(/C=C/c1ccc(Cl)c(Cl)c1)NCCCCCCN1CCN(C(=O)Nc2cccc(Cl)c2)CC1	980
CCOC(=O)C(C)(C)Oc1ccc(C(=C2CC(C)(C)CC(C)(C)C2)c2ccc(O)cc2)cc1	1130
COc1cccc(NC(=O)Nc2cc(C)nc3ccccc23)c1	720
CC1(C)N=C(N)NC(Nc2ccc(Cl)cc2)=N1	340
COc1ccc2nccc([C@@H](O)CN3CCC(NCCc4c[nH]c5ccccc45)CC3)c2c1	210
O=C(Nc1ccc([N+](=O)[O-])cc1Cl)c1cc(Br)cc(Cc2ccccc2)c1O	1290
O=C(NCCNc1ccnc(Nc2ccc(F)cc2)n1)Nc1ccccc1F	760
Cc1ccc(Cn2ncc(N3CCC(N)CC3)c(Cl)c2=O)cc1NC(=O)Nc1ccc(-c2ccccc2)cc1	920
O=S(=O)(NCCN1CCCC1)c1ccc(-c2cccc(CNCc3ccc(F)cc3)c2)s1	760
NC1=NC(=O)C(=Cc2cn(-c3ccccc3)nc2-c2cccc(S(=O)(=O)N3CCCC3)c2)S1	1140
O=C(/C=C/c1ccc(Cl)c(Cl)c1)NCCCCCN1CCCN(C(=O)Nc2cc(F)cc(F)c2)CC1	770
Clc1ccc(OCCC2CCN(CCCCCCN3CCCCC3)CC2)cc1Cl	1140
O=C(/C=C/c1ccc(Cl)c(Cl)c1)NCCCCCN1CCC(c2[nH]nc(-c3ccccc3)c2Br)CC1	720
Cc1ccc(CN2CCN(Cc3cccc(NC(=O)c4ccc5ccccc5c4)c3)CC2)cc1C	1220
CCc1cn2c3c(cc(C(=O)N[C@@H](Cc4ccccc4)[C@H](O)CNC4CCCCC4)cc13)N(CC)S(=O)(=O)CC2	30
O=C(Cn1c(SCc2cccc(F)c2F)cc(=O)c2ccccc21)N(CCCn1ccnc1)Cc1ccc(-c2ccc(C(F)(F)F)cc2)cc1	1320
COc1ccc(Cc2c(C)nc3nc(N)nc(N)c3c2C)cc1OC	910
C[C@@H]1CN(c2cnn(Cc3cccc(NC(=O)Nc4ccc(-c5ccccc5)cc4)c3)c(=O)c2Cl)C[C@H](C)N1	340
CCOC(=O)C(C)(C)Oc1ccc(CN(Cc2ccc(CC(C)C)cc2)C(=O)Nc2ccc(F)cc2F)c(OC)c1	240
CSc1sc(NC(=O)Nc2cccc(C(F)(F)F)c2)cc1C#N	910
O=c1c2c([nH]c3cc(Cl)ccc13)CCCC2	810
CCCCCC(C)C(C)c1cc(O)c2c(c1)O[C@@]1(C(C)C)CC(O)[C@H](C)[C@@H]2C1 (stereo not given in full)	990
Nc1nc(N)c2c(Cl)c(CNc3cccc(C(=O)O)c3)ccc2n1	10
